Test results as given in patent publication US11446317B2, “Inositol phosphate-containing composition” (OTSUKA PHARMACEUTICAL CO., LTD., priority 2017, dated 2022).
Values joined by “and” are separate entries in the source; they are usually repeats but may differ in a detail not shown here. Identical values can stand only once.

Assays:
healthy adults [1] = assay: High intake test (5 weeks, 3 to 5 bottles per day) in healthy adults; type: in vivo, human; details: for change in serum iron level: high intake test
Procedure: The subjects (48 healthy adults: 20 to 65 years of age, 16 men, 16 premenopausal women, and 16 postmenopausal women) ingested 5 bottles per day (or 3 to 5 bottles per day depending on the subject's capacity) of test beverage. The test beverage contains 600 mg of phytic acid per bottle (50 mL). The duration of intake was 5 weeks. The first week being a time period to determine each subject's tolerable volume of test beverage, during which time the subjects ingested test beverages while increasing one bottle daily (Up to 5 bottles per day). If 5 bottles/day could not be taken due to taste, volume, etc., the intake volume was determined by each subject, and the intake volume on day 7 was taken as the tolerable volume for each subject, and each subject ingested this tolerable volume (3 to 5 bottles per day) during the remaining study period (4 weeks). Before and 3 weeks, 5 weeks, and 7 weeks (i.e. 2 weeks after the last intake) after the start of the intake, blood pressure of fasting was measured and blood of fasting was collected. The collected blood was measured for each test item by an analysis contractor. Tests for blood pressure, blood glucose, AST, and serum iron compared to 0 week were performed with a paired t-test, and tests for 1, 25-(OH)2-D compared to 0 week were performed with one-way ANOVA followed by Dunnet's multiple comparison method. A two-sided test was performed with a significance level of 5%. The analysis included 44 subjects excluding 2 subjects who withdrew their consent and 2 subjects who were unable to take more than 3 bottles of the test beverage.

[2] = test system: alkaline phosphatase and 5′nucleotidase (rat small intestine powder); assay: Purine nucleotide metabolism inhibition (IMP to inosine) using rat small intestine powder; type: biochemical; details: pH 6.2 to 6.4, 37° C. 30 minutes
Procedure: The rat small intestine powder contains alkaline phosphatase and 5′nucleotidase as the main digestive enzymes. The inhibition of metabolism of purine nucleotides to purine nucleosides by phytic acid was investigated.
A 100 mg/mL of solution of rat small intestine powder (Clare Japan, Inc.) in the assay buffer (2.37% aqueous solution of Trizma® maleate (Sigma-Aldrich)) was used as the enzyme solution. Inosine monophosphate (IMP) (Sigma-Aldrich) (9 mM) in the assay buffer was used as the substrate solution.
Phytic acid and the assay buffer were mixed, and the pH was adjusted to 6.2 to 6.4 with sodium hydroxide to obtain the sample solutions of each concentration. The control solution was prepared by adjusting the assay buffer to pH 6.2 to 6.4 with sodium hydroxide.
(§1) Enzymatic reaction was performed using a 96 well plate (Thermo Fisher Scientific) in the following manner.
The sample solution or control solution (100 μL/well), the substrate solution (100 μL/well), and the enzyme solution (100 μL/well) were added, and the enzyme reaction was performed at 37° C. for 30 minutes. A 20 μL aliquot of the reaction solution was transferred to multi-screen HTS HV (Merck Millipore), and the reaction was stopped by adding the stop solution (0.33 M HClO4, 180 μL/well). […]

xanthine oxidase = details: Non-Patent Document 4, cited from earlier work
[3] = target: T1, Phosphatase, Alkaline, Calf Intestine (Bos taurus, UniProt P19111); assay: Alkaline phosphatase inhibition (IMP to inosine); type: biochemical; details: sample solution 10 mg/mL, pH 6.2 to 6.4, 37° C. 30 minutes
T1 construct: purchased Merck
Procedure: Phosphatase, Alkaline, Calf Intestine (Merck) dissolved in the assay buffer (2.37% aqueous solution of Trizma® maleate (Sigma-Aldrich)) at 5.0 U/mL was used as the enzyme solution.
Inosine monophosphate (IMP) (Sigma-Aldrich) dissolved in the assay buffer at 9 mM was used as the substrate solution.
Phytic acid and the assay buffer were mixed, and the pH was adjusted to 6.2 to 6.4 with sodium hydroxide to obtain a sample solution (10 mg/mL). The control solution was prepared by adjusting the assay buffer to pH 6.2 to 6.4 with sodium hydroxide.
as §1
The sample solution or control solution (100 μL/well), the substrate solution (100 μL/well), and the enzyme solution (100 μL/well) were added, and the enzyme reaction was performed at 37° C. for 30 minutes. A 20 μL aliquot of the reaction solution was transferred to multi-screen FITS HV (Merck Millipore), and the reaction was stopped by adding the stop solution (0.33 M HClO4, 180 μl/well). Centrifuge (1080×g for 10 minutes at room temperature) was performed, and the filtrate was subjected to high performance liquid chromatography (HPLC) to determine the amounts of inosine monophosphate and inosine.
The analytical conditions of HPLC are shown below.
Detector: SPD-M 30 A (Shimadzu Corporation) […]

healthy adults [4] = assay: Low intake test (12 weeks, 1 bottle per day) in healthy adults; type: in vivo, human; details: for change in serum iron level: low intake test
Procedure: Subjects (39 healthy adults: 20 to 65 years of age, 13 men, premenopausal women, and 13 postmenopausal women) ingested 1 bottle of a test beverage per day for 12 weeks. The test beverage contains 600 mg of phytic acid per bottle (50 mL). Before and 4 weeks, 8 weeks, 12 weeks, and 14 weeks (i.e. 2 weeks after the last intake) after the start of the intake, blood of fasting was collected. The collected blood was measured for each test item by an analysis contractor. Tests for each endpoint compared to 0 week were performed with a paired t-test. Two-sided test was performed with a significance level of 5%.

[5] = ingestion of 1,400 mg of sodium phytate (1,000 mg as phytic acid); cited from earlier work

T1 sequence (P19111 20-506): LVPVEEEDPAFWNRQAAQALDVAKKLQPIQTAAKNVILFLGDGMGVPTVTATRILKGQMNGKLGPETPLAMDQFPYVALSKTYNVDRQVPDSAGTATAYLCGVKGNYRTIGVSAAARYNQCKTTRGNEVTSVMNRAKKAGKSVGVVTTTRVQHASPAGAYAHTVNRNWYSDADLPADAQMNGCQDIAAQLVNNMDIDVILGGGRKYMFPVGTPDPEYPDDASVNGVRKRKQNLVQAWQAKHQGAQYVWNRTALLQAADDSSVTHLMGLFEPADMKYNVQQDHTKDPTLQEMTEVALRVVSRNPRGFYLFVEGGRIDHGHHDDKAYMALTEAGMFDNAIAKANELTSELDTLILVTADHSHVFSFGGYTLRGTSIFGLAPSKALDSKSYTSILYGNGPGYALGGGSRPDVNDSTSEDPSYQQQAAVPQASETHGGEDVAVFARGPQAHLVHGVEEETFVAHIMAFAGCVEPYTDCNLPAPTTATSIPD

Structure (SMILES): O=P(O)(O)O[C@H]1[C@H](OP(=O)(O)O)[C@@H](OP(=O)(O)O)[C@H](OP(=O)(O)O)[C@@H](OP(=O)(O)O)[C@H]1OP(=O)(O)O [phytic acid]
- change in 1,25-(OH)2-D level (healthy adults [1]; 5 weeks after ingestion compared with before ingestion): significant increase
- change in diastolic blood pressure (healthy adults [1]; high diastolic blood pressure group (86.3 or more at 0 week)): significant decrease
- change in serum iron level (healthy adults [1]; high level group (117 or more at 0 week)): significant decreases
- change in serum iron level (healthy adults [1]; low level group (79 or less at 0 week)): significant rises
- change in serum iron level (healthy adults [1]; middle level group (79 to 117 at 0 week)): no large changes
- change in AST level (healthy adults [1]; high level group (21 or more at 0 week), 3, 5, and 7 weeks compared with before ingestion): significant decreases
- change in systolic blood pressure (healthy adults [1]; high systolic blood pressure group (126 or more at 0 week)): significant decrease
- change in diastolic blood pressure (healthy adults [1]; low diastolic blood pressure group (73.8 or less at 0 week)): no change
- change in AST level (healthy adults [1]; low level group (17 or less at 0 week), 3 weeks compared with before ingestion, change not large): significant increase
- change in systolic blood pressure (healthy adults [1]; low systolic blood pressure group (115.5 or less at 0 week)): no change
- change in diastolic blood pressure (healthy adults [1]; middle diastolic blood pressure group (73.8 to 86.3 at 0 week)): no change
- change in systolic blood pressure (healthy adults [1]; middle systolic blood pressure group (115.5 to 126 at 0 week)): significant change but it was not large
- inhibition of metabolism of inosine monophosphate to inosine [2]: inhibits the conversion of purine nucleotides into purine nucleosides
- IC50 of inhibition of xanthine oxidase activity (conversion of xanthine to uric acid) (xanthine oxidase): ~19.8 mg/mL
- IC50 (xanthine oxidase; read-out: IC50 of inhibition of xanthine oxidase activity (conversion of xanthine to uric acid)): ~30 mM
- inhibition of metabolism of inosine monophosphate to inosine by alkaline phosphatase [3]: inhibits the conversion of purine nucleotides into purine nucleosides
- change in HbA1c level (healthy adults [4]; high HbA1c level group (5.5 or more at 0 week)): significant decrease
- change in blood glucose level (healthy adults [4]; high blood glucose level group (86 or more at 0 week)): significant decrease
- change in serum iron level (healthy adults [4]; high level group (132 or more at 0 week)): significant decreases
- change in serum iron level (healthy adults [4]; low level group (90 or less at 0 week)): significant rises
- change in serum iron level (healthy adults [4]; middle level group (90 to 132 at 0 week)): no large changes

Structure (SMILES): O=P([O-])([O-])O[C@H]1[C@H](OP(=O)([O-])O)[C@H](OP(=O)([O-])[O-])[C@H](OP(=O)([O-])O)[C@@H](OP(=O)([O-])[O-])[C@@H]1OP(=O)([O-])O.[Na+].[Na+].[Na+].[Na+].[Na+].[Na+].[Na+].[Na+].[Na+] [sodium phytate]
- blood phytic acid concentration at the maximum [5]: 0.12 mg/L and 0.181 μM
